Assay: Toxicity and tissue irritation
Settings: 1,8-cineole content of the oil

CC12CCC(CC1)C(C)(C)O2 [1,8-cineole]
concentration that produces tissue irritation: above 10%
